Laboratory results published in publication PMC9295122, “Sialic Acid Derivatives Inhibit SiaT Transporters and Delay Bacterial Growth” (ACS Chemical Biology, 2022).
“Also recorded” adds a separate entry of the source.

How the values were obtained:
[1] = Plasma-protein binding by RED, range over three species; format: in vitro ADME; settings: pH 7.2, range over human, mouse, and rat, read-out: free fraction (plasma protein binding by RED)
Description: Next, we investigated the physiochemical and absorption, distribution, metabolism, and excretion (ADME) properties of compounds 3a, 3e, and 3f (Tables S5 and S6). […] The logD at pH 7.4 was below 0 for all three compounds (<−0.5 for compounds 3a and 3e). […] Overall, these features represent promising starting points for further development of this class of molecules.
The assay was run in a deep well plate containing RED inserts with semipermeable dialysis membranes. The reaction was started by adding the compounds to a blank plasma in a 5 μM concentration. Opposite to the blank plasma was a compartment containing isotonic sodium–phosphate buffer (pH 7.2) separated from the plasma by the membrane. The plate was equilibrated in a water bath at 37 °C for 4 h. Samples from both the plasma and the buffer side were matrix compensated before protein precipitation. The samples were centrifuged, and the supernatants were diluted and analyzed by LC–MS/MS to determine the % unbound compound. Two incubations per compound per species.

[2] = Metabolic stability in rat liver microsomes; format: in vitro ADME; settings: for Metabolic stability in rat microsomes, Exp. 1 / Metabolic stability in rat microsomes, Exp. 2: intrinsic clearance, 1 µM compound; for microsomal CLint at 1 µM: rat liver microsomes, read-out: intrinsic clearance Clint
Description: The assay was run in a 96-deep well format and solutions were prepared containing microsomes in phosphate buffer. The microsomes employed were from humans, rats, and mice. The reaction was initiated by addition of NADPH after preincubation at 37 °C with test compounds. The reaction was stopped by the addition of acetonitrile (ACN) at six time points (0, 5, 10, 15, 25, and 45 min), the samples were centrifuged, and the supernatant was diluted to determine the loss of compound by LC–MS/MS. Two incubations per compound per species. For further details regarding working concentrations, volumes, and final concentrations at incubation, refer to the supplementary section (Table S6). […]
Metabolic Metabolic Metabolic stability in stability in stability in Plasma-protein human mouse rat In vitro plasma stability binding by RED
Assay/compo microsome microsome microsome (% compound remaining after (% unbound und s s s 23 h) compound, (µL/min/m (µL/min/m (µL/min/m average n=2) g protein) g protein) g protein)
Exp. Exp. Exp. Exp. Exp. Exp. Hum Mou Ra Do Mini Hum Mou Ra […]
Conc. of W orki ng Vol ume i n Fi nal conc. At sol uti on assay incubation
577 m g / m L520 µ L0. […]

[3] = tested on: E. coli JW3193 ΔNanT expressing PmSiaT; experiment: Growth of E. coli JW3193 ΔNanT expressing PmSiaT; format: cell-based, Escherichia coli; settings: for effect on growth on sialic acid: 0.5 mM sialic acid + 1 mM inhibitor; for growth with inhibitor as only carbon source: 1 mM inhibitor
Description: (§1) To further investigate bacterial growth inhibition, we employed a model system of E. coli JW3193 ΔNanT expressing the SaSiaT and PmSiaT transporters. We designed these experiments to test if compounds 3e and 3f could inhibit the Neu5Ac transport in vivo because, without an active sialic acid transporter, E. coli JW3193 ΔNanT cannot grow on Neu5Ac.[16],[21]
(§2) For the bacterial growth experiments, the pJ422-01 plasmid containing the relevant SiaT or NanT gene was transformed into the E. coli JW3193 ΔnanT strain.[21] Throughout the experiments, strains containing the pJ422-01 plasmid were grown in media supplemented with 25 μg/mL Zeocin. E. coli BW25113, empty E. coli JW3193, and E. coli JW3193 with pJ422-01 containing the NanT gene were also used as controls. Strains were initially plated out from glycerol stocks before a single colony was picked and grown overnight in low salt LB media at 37 °C, with shaking at 180 rpm. Overnight cultures were diluted to an OD600 of 0.05 using low salt LB [supplemented with 1 mM isopropyl β-D-1-thiogalactopyranoside (IPTG)], before they were incubated at 37 °C, with shaking at 250 rpm, until they reached an OD600 of 0.3. At this point, 5 mL of each culture was centrifuged at 6000g for 5 min at 25 °C. The supernatants were removed and the cell pellets were resuspended in 5 mL of M9 MM without glucose prior to being centrifuged again at 6000g for 5 min at 25 °C. This wash step was repeated twice more before cells were resuspended to an OD600 of 0.5 in M9 MM without glucose. A Corning Costar Flat Bottom 96 Well TC-treated microplate was set up with 180 μL of M9 MM containing 1 mM IPTG (for the pJ422-01 strains) and either 5 mM glucose, 0.5 mM sialic acid, and 0.5 mM sialic acid with 1 mM of either inhibitor, or 1 mM of either inhibitor as a carbon source. To the 180 μL of media, 20 μL of each culture were added to the plate (OD600 of 0.05), before it was loaded into a FLUOstar Omega microplate reader (BMG Labtech). Growth was recorded at 600 nm every 10 min at 37 °C, with shaking at 300 rpm. Growth curves represent the mean and standard deviation of measurement from triplicate measurements (glucose/no carbon source in duplicate).
Fig. S5. Growth of E. coli JW3193 ΔNanT expressing the SaSiaT and PmSiaT transporters from a plasmid and using various carbon sources and in the presence or absence of inhibitors, 3e and 3f. […]
(§3) (B) PmSiaT is again expressed from a plasmid in the E. coli strain JW3193 ΔNanT, where the native sialic acid transporter (NanT) is deleted. The strain grows normally when in media with glucose (black line). There is no growth in the absence of any carbon source (grey line). In the presence of sialic acid at 0.5 mM the strain grows to an OD of ~0.5 (red line), showing that the transporter is functional. […]
substrates. […]

[4] = tested on: E. coli JW3193 ΔNanT expressing SaSiaT; experiment: Growth of E. coli JW3193 ΔNanT expressing SaSiaT; format: cell-based, Escherichia coli; settings: for effect on growth on sialic acid: 0.5 mM sialic acid + 1 mM inhibitor; for growth with inhibitor as only carbon source: 1 mM inhibitor
Description: as §1, §2
as §3, with “Fig. S5. Growth of E. coli JW3193 ΔNanT expressing the SaSiaT and” for “(B)”, “PmSiaT transporters from a plasmid and using various carbon sources and in the presence or absence of inhibitors, 3e and 3f. (A) SaSiaT” for “PmSiaT”, “is” for “is again”, “functional. There is no growth in the” for “functional.”

Structure (SMILES)	fraction unbound at 4 h, 5 μM [1]	Metabolic stability in rat microsomes, Exp. 1 [2] [µL/min/mg protein]	Metabolic stability in rat microsomes, Exp. 2 [2] [µL/min/mg protein]	microsomal CLint at 1 µM [2] [µL/min/mg]	effect on growth on sialic acid [3]	growth with inhibitor as only carbon source [3]	effect on growth on sialic acid [4]	growth with inhibitor as only carbon source [4]
CC(=O)NC1C(OCc2ccccc2)CC(O)(C(=O)O)OC1C(O)C(O)CO (centres unmarked) [Compound 3a]	0.63 to 0.85	< 10	< 10	< 10				
CC(=O)NC1C(OCc2cc(F)cc(F)c2)CC(O)(C(=O)O)OC1C(O)C(O)CO (centres unmarked) [Compound 3e]	0.63 to 0.85	< 10	< 10	< 10	no effect on growth; also recorded: neither inhibitor seemed to alter bacterial growth	no growth	no effect on growth; also recorded: neither inhibitor seemed to alter bacterial growth	no growth
CC(=O)NC1C(OCc2cc(Br)cc(Br)c2)CC(O)(C(=O)O)OC1C(O)C(O)CO (centres unmarked) [Compound 3f]	0.21 to 0.27	< 10	< 10	< 10	no effect on growth; also recorded: neither inhibitor seemed to alter bacterial growth	no growth	no effect on growth; also recorded: neither inhibitor seemed to alter bacterial growth	no growth
